Tests used:
[1] = tested on: pancreatic cancer stem cells; assay: percent survival of pancreatic cancer stem cells; type: cell-based, human; conditions: varying concentrations; FIG. 9
Source text: FIG. 9 depicts treatment of pancreatic cancer with compounds I-9, I-10; I-3; I-11. FIG. 9 depicts the % survival of pancreatic cancer stem cells at varying concentrations of I-9; I-10; I-3; I-11.
(§1) The present example describes methods used for testing the efficacy of compounds described herein. The selective growth of stem cells of cancers, of their precursor lesions, and of normal and chronically diseased epithelial tissues is described in the references below. In brief, biopsied tissues are reduced to single cell suspensions and plated onto lawns of irradiated 3T3-J2 feeder cells in specialized StemEcho media and libraries of colonies are evident in 7-10 days. Single cell-derived clones are generated by single cell FACS sorting to 384 well plates and wells with individual colonies are expanded, analyzed by molecular genetics, and grown as discrete clones.
(§2) Approximately 400,000 cells from discrete clones relevant to particular disease states (cancer, chronic inflammatory disease) are plated into 384 plates previously seeded with irradiated feeder cells, allowed to grow for 5 days, and then exposed to the test compounds in a serial dilution format. After 2-5 days, the cells are fixed using paraformaldehyde and the human cells are labelled with human-specific antibodies followed by fluorochrome-labelled secondary antibodies. Human cell numbers are quantified via high-throughput imaging technology (CellInsight CX7 LED, Thermo), and data analyzed by Excel.

[2] = tested on: Barrett's esophagus cells; assay: percent survival of Barrett's esophagus cells; type: cell-based, human; conditions: FIG. 1; for sensitivity of Barrett's esophagus cells compared to the other compounds of Table 1: versus other IAP inhibitors of Table 1
Description: FIG. 1 depicts treatment of Barrett's esophagus cells with compounds described herein. The concentration of the compound used and percent survival of the cells is provided.
Cells isolated from individuals diagnosed with or suffering from Barrett's esophagus were treated with the indicated compounds.
as §1, §2

[3] = tested on: esophageal adenocarcinoma stem cells; assay: percent survival of esophageal adenocarcinoma stem cells; type: cell-based, human; conditions: FIG. 2; versus other IAP inhibitors of Table 1
Source text: FIG. 2 depicts treatment of esophageal adenocarcinoma stem cells with compounds described herein. The concentration of the compound used and percent survival of the cells is provided.
FIG. 6 depicts treatment of Barrett's low grade dysplasia and esophageal adenocarcinoma with compound I-1. FIG. 6A depicts the % survival of Barrett's low grade dysplasia stem cells at higher concentration of compound I-1. FIG. 6B depicts the % survival of Barrett's low grade dysplasia stem cells at lower concentration of compound I-1. FIG. 6C depicts the % survival of esophageal adenocarcinoma stem cells at higher concentration of compound I-1. […]
(§3) The present example describes methods used for testing the efficacy of compounds described herein. […] Single cell-derived clones are generated by single cell FACS sorting to 384 well plates and wells with individual colonies are expanded, analyzed by molecular genetics, and grown as discrete clones.
as §2, with “After 2-5 days, the cells are fixed using paraformaldehyde and the human cells are labelled with human-specific antibodies followed by fluorochrome-labelled secondary antibodies.” left out

[4] = tested on: advanced Barrett's esophagus stem cells; assay: percent survival of advanced Barrett's esophagus stem cells; type: cell-based, human
Source text: FIG. 4 depicts treatment of advanced Barrett's esophagus stem cells with compound I-1 in cells isolated from two different patients. FIG. 4A depicts the % survival of Barrett's esophagus stem cells from a first patient at higher concentration of compound I-1. FIG. 4B depicts the % survival of Barrett's esophagus cells from a first patient at lower concentration of compound I-1. FIG. 4C depicts the % survival of Barrett's esophagus cells from a second patient at higher concentration of compound I-1. FIG. 4D depicts the % survival of Barrett's esophagus stem cells from a second patient at lower concentration of compound I-1.
FIG. 7 depicts treatment of various diseases with compounds I-2 and I-5. FIG. 7A depicts % survival of diffused gastric adenocarcinoma with ascites cells with varying concentrations of compounds I-2 and I-5. FIG. 7B depicts % survival of advanced Barret's cells with varying concentrations of compounds I-2 and I-5. FIG. 7C depicts % survival of high-grade serous ovarian cancer cells with varying concentrations of compounds I-2 and I-5. […]
as §3, with “clones. […]” for “clones.”

[5] = tested on: gastric cancer stem cells; assay: percent survival of (diffuse) gastric cancer stem cells; type: cell-based, human; conditions: two individuals with diffuse gastric cancer; FIG. 7A, 7D
Source text: FIG. 7 depicts treatment of various diseases with compounds I-2 and I-5. FIG. 7A depicts % survival of diffused gastric adenocarcinoma with ascites cells with varying concentrations of compounds I-2 and I-5. FIG. 7B depicts % survival of advanced Barret's cells with varying concentrations of compounds I-2 and I-5. FIG. 7C depicts % survival of high-grade serous ovarian cancer cells with varying concentrations of compounds I-2 and I-5. FIG. 7D depicts % survival of gastric cancer with varying concentrations of compounds I-2 and I-5. FIG. 7E depicts % survival taxol resistant ovarian cancer stem cells with varying concentrations of compounds I-2 and I-5. […]
as §3
as §2, with “After 2-5 days, the cells are fixed using paraformaldehyde and the human cells are labelled with human-specific antibodies followed by fluorochrome-labelled secondary antibodies.” left out

cIAP1 = conditions: inhibits cIAP1; cited from earlier work
[6] = tested on: Barrett's low grade dysplasia stem cells; assay: percent survival of Barrett's low grade dysplasia stem cells; type: cell-based, human; conditions: FIG. 6A, 6B
Source text: FIG. 6 depicts treatment of Barrett's low grade dysplasia and esophageal adenocarcinoma with compound I-1. FIG. 6A depicts the % survival of Barrett's low grade dysplasia stem cells at higher concentration of compound I-1. FIG. 6B depicts the % survival of Barrett's low grade dysplasia stem cells at lower concentration of compound I-1. FIG. 6C depicts the % survival of esophageal adenocarcinoma stem cells at higher concentration of compound I-1. FIG. 6D depicts the % survival of esophageal adenocarcinoma cells at lower concentration of compound I-1.
(§4) FIG. 8 depicts treatment of Barrett's low grade dysplasia and high grade dysplasia with compounds I-1; I-2; I-6; and I-3. […]
as §3
as §2, with “After 2-5 days, the cells are fixed using paraformaldehyde and the human cells are labelled with human-specific antibodies followed by fluorochrome-labelled secondary antibodies.” left out

[7] = tested on: Barrett's high grade dysplasia stem cells; assay: percent survival of Barrett's high grade dysplasia stem cells; type: cell-based, human; conditions: FIG. 5A, 5B
Source text: FIG. 5 depicts treatment of Barrett's high grade dysplasia and diffuse gastric cancer with compound I-1. FIG. 5A depicts the % survival of Barrett's high grade dysplasia stem cells at higher concentration of compound I-1. FIG. 5B depicts the % survival of Barrett's high grade dysplasia stem cells at lower concentration of compound I-1. FIG. 5C depicts the % survival of diffuse gastric cancer stem cells at higher concentration of compound I-1. FIG. 5D depicts the % survival of diffuse gastric cancer stem cells at lower concentration of compound I-1.
as §4, §3
as §2, with “After 2-5 days, the cells are fixed using paraformaldehyde and the human cells are labelled with human-specific antibodies followed by fluorochrome-labelled secondary antibodies.” left out

[8] = tested on: lung adenocarcinoma stem cells; assay: percent survival of lung adenocarcinoma stem cells; type: cell-based, human; conditions: FIG. 3A, 3B
Description: FIG. 3 depicts treatment of lung adenocarcinoma stem cells with compound I-1. FIG. 3A depicts the % survival of lung adenocarcinoma stem cells at higher concentration of compound I-1. FIG. 3B depicts the % survival of lung adenocarcinoma stem cells at lower concentration of compound I-1.
Specifically, lung adenocarcinoma stem cells from an additional individual were tested and treated at higher (nM) or low (pM) concentrations of I-1 (FIG. 3A and FIG. 3B).
as §1, with “In brief, biopsied tissues are reduced to single cell suspensions and plated onto lawns of irradiated 3T3-J2 feeder cells in specialized StemEcho media and libraries of colonies are evident in 7-10 days.” left out
as §2, with “After 2-5 days, the cells are fixed using paraformaldehyde and the human cells are labelled with human-specific antibodies followed by fluorochrome-labelled secondary antibodies.” left out

## CN[C@@H](C)C(=O)N[C@H](C(=O)N1CCC[C@H]1C(=O)N[C@H]1c2ccccc2C[C@H]1OCCCCCCNc1c(NCCCCCCO[C@@H]2Cc3ccccc3[C@@H]2NC(=O)[C@@H]2CCCN2C(=O)[C@@H](NC(=O)[C@H](C)NC)C2CCCCC2)c(=O)c1=O)C1CCCCC1 [I-11]
[1]
  sensitivity of pancreatic cancer stem cells: sensitive

## CN[C@@H](C)C(=O)N[C@H](C(=O)N1CCC[C@H]1C(=O)N[C@H]1c2ccccc2C[C@H]1OCCNc1c(NCCO[C@@H]2Cc3ccccc3[C@@H]2NC(=O)[C@@H]2CCCN2C(=O)[C@@H](NC(=O)[C@H](C)NC)C2CCCCC2)c(=O)c1=O)C1CCCCC1 [I-2]
[2]
  sensitivity of Barrett's esophagus cells: particularly sensitive
  sensitivity of Barrett's esophagus cells compared to the other compounds of Table 1: significantly more sensitive
[3]
  sensitivity of esophageal adenocarcinoma stem cells compared to the other compounds of Table 1: significantly more sensitive
[4]; additional individual, varying concentrations, FIG. 7B
  sensitivity of advanced Barrett's esophagus stem cells: notably sensitive
[5]
  sensitivity of gastric cancer stem cells: sensitive

## CN[C@@H](C)C(=O)N[C@H](C(=O)N1CCC[C@H]1C(=O)N[C@H]1c2ccccc2C[C@H]1OCCCCNc1c(NCCCCO[C@@H]2Cc3ccccc3[C@@H]2NC(=O)[C@@H]2CCCN2C(=O)[C@@H](NC(=O)[C@H](C)NC)C2CCCCC2)c(=O)c1=O)C1CCCCC1 [I-10]
[1]
  sensitivity of pancreatic cancer stem cells: sensitive

## CN[C@@H](C)C(=O)N[C@H](C(=O)N1CCC[C@H]1C(=O)N[C@H]1c2ccccc2C[C@H]1OCCCNc1c(NCCCO[C@@H]2Cc3ccccc3[C@@H]2NC(=O)[C@@H]2CCCN2C(=O)[C@@H](NC(=O)[C@H](C)NC)C2CCCCC2)c(=O)c1=O)C1CCCCC1 [I-9]
[1]
  sensitivity of pancreatic cancer stem cells: sensitive

## CN[C@@H](C)C(=O)N[C@H](C(=O)N1CCC[C@H]1c1nc(C(=O)c2ccc(F)cc2)cs1)C1CCCCC1 [LCL 161]
cIAP1
  IC50: 400 pM

## CN[C@@H](C)C(=O)N[C@H](C(=O)N1CCC[C@H]1C(=O)N[C@H]1c2ccccc2C[C@H]1OCCOCCNc1c(NCCOCCO[C@@H]2Cc3ccccc3[C@@H]2NC(=O)[C@@H]2CCCN2C(=O)[C@@H](NC(=O)[C@H](C)NC)C2CCCCC2)c(=O)c1=O)C1CCCCC1 [I-1]
[6]
  sensitivity of Barrett's low grade dysplasia stem cells: sensitive
[7]
  sensitivity of Barrett's high grade dysplasia stem cells: sensitive
[2]
  sensitivity of Barrett's esophagus cells: particularly sensitive
  sensitivity of Barrett's esophagus cells compared to the other compounds of Table 1: significantly more sensitive
[3]
  sensitivity of esophageal adenocarcinoma stem cells compared to the other compounds of Table 1: significantly more sensitive
[4]; two individuals, higher (nM) or low (pM) concentrations, FIG. 4A-4D
  sensitivity of advanced Barrett's esophagus stem cells: demonstrates the sensitivity
[8]; higher (nM) or low (pM) concentrations
  sensitivity of lung adenocarcinoma stem cells: demonstrate the sensitivity
[8]; higher and lower concentration
  lethality compared with another highly potent cytotoxic treatment: comparable lethality to another highly potent cytotoxic treatment

## CN[C@@H](C)C(=O)N[C@H](C(=O)N1CCC[C@H]1C(=O)N[C@H]1c2ccccc2C[C@H]1OCCCCCNc1c(NCCCCCO[C@@H]2Cc3ccccc3[C@@H]2NC(=O)[C@@H]2CCCN2C(=O)[C@@H](NC(=O)[C@H](C)NC)C2CCCCC2)c(=O)c1=O)C1CCCCC1 [I-3]
[1]
  sensitivity of pancreatic cancer stem cells: sensitive

— patent US20260337182A1, “COMPOUNDS AND COMPOSITIONS USEFUL AS INHIBITORS OF IAPs” (Tract Pharmaceuticals, Inc., priority 2022, published 2026)
